Test results taken from patent EP2815749A1, “Solid form of 4-amino-2-(2,6-dioxopiperidine-3-yl)isoindoline-1,3-dione having specified X-ray diffraction pattern” (IP Gesellschaft für Management mbH, priority 2013, dated 2014).
In brackets after ≈: the same amount, converted by molar mass. Read-outs that look alike come from different tables or passages of the source.

Assay: Approximate solubility of pomalidomide at 50°C in 96 solvent compositions (LC)
Format: physicochemical
Settings: organic solvent or mixture, thermodynamic from solid
Protocol: Pomalidomide Solid Form Preparations: Preparation of solid form of pomalidomide was conducted by equilibrating pomalidomide in 96 solvent compositions at 50°C and subjected to four conditions: slurry, evaporation, cooling, and precipitation. […] Solvents were then added, as binary gradients consisting of main solvent and co-solvent, to give a total of 150 µl, in each of the 96 vials (see Table 6 for the exact composition of each vial). […] For each of the evaporation, precipitation, and cooling experiments, approximately 8 mg of a solid sample of pomalidomide (e.g., Form A) was delivered to each position of the plate. Solvents were added to the master plate, as binary gradients consisting of main solvent and co-solvent, to give a total volume of 800 µT in each of the 96 vials (see Table 7 for the exact composition of each vial). The master plate, containing pomalidomide and solvents, was then equilibrated by stirring for 2 hours at 50°C. Upon completion of the equilibration cycle, the supernatant was aspirated into a four-tipped needle assembly and transferred to a sealed parallel filtration assembly. The mixtures were forced through the filtration assembly using positive pressure and the filtrates were collected in an array of glass vials. The filtered solutions were subsequently aspirated into the four-tipped assembly and aliquots were dispensed to an array of glass vials for subsequent LC analysis to determine approximate concentrations of pomalidomide in each solvent composition at the beginning of the experiments (Table 8). Both the four-tipped needle assembly and filtration assembly were maintained at the equilibration temperature of 50°C throughout the entire transfer process.
The results correspond to the solvent systems described in Table 7, equilibrated at 50°C for 2 hours. […] The approximate concentrations were determined by LC.

Question: With `Nc1cccc2c1C(=O)N(C1CCC(=O)NC1=O)C2=O` (stereo not drawn) [Pomalidomide, 4-amino-2-(2,6-dioxopiperidine-3-yl)isoindoline-1,3-dione] as the molecule, how does the solubility at 2 h (binary solvent composition (main solvent and co-solvent), 50 °C, solvent system D12 of Table 7, read-out: Approximate Measured Solubility) read?
Answer: 670 µg/mL (≈ 2450 µM)

Question: What about the solubility at 2 h (binary solvent mixture (main solvent and co-solvent), 50 °C, solvent system D9 of Table 7, read-out: Approximate Measured Solubility) of the same molecule?
Answer: 1630 µg/mL (≈ 5970 µM)

Question: And the solubility at 2 h (binary solvent mixture (main solvent and co-solvent), 50 °C, solvent system E1 of Table 7, read-out: Approximate Measured Solubility)?
Answer: 1600 µg/mL (≈ 5860 µM)

Question: What about the solubility at 2 h (binary solvent mixture (main solvent and co-solvent), 50 °C, solvent system E2 of Table 7, read-out: Approximate Measured Solubility) of the same molecule?
Answer: 690 µg/mL (≈ 2530 µM)

Question: What about the solubility at 2 h (binary solvent mixture (main solvent and co-solvent), 50 °C, solvent system E3 of Table 7, read-out: Approximate Measured Solubility) of the same molecule?
Answer: 320 µg/mL (≈ 1170 µM)

Question: And the solubility at 2 h (binary solvent mixture (main solvent and co-solvent), 50 °C, solvent system E4 of Table 7, read-out: Approximate Measured Solubility)?
Answer: 130 µg/mL (≈ 476 µM)

Question: What about the solubility at 2 h (binary solvent mixture (main solvent and co-solvent), 50 °C, solvent system E5 of Table 7, read-out: Approximate Measured Solubility) of the same molecule?
Answer: 20 µg/mL (≈ 73.2 µM)

Question: And the solubility at 2 h (binary solvent mixture (main solvent and co-solvent), 50 °C, solvent system E7 of Table 7, read-out: Approximate Measured Solubility)?
Answer: 20 µg/mL (≈ 73.2 µM)

Question: And the solubility at 2 h (binary solvent mixture (main solvent and co-solvent), 50 °C, solvent system E8 of Table 7, read-out: Approximate Measured Solubility)?
Answer: 730 µg/mL (≈ 2670 µM)

Question: What about the solubility at 2 h (binary solvent mixture (main solvent and co-solvent), 50 °C, solvent system E9 of Table 7, read-out: Approximate Measured Solubility) of the same molecule?
Answer: 1630 µg/mL (≈ 5970 µM)

Question: And the solubility at 2 h (binary solvent mixture (main solvent and co-solvent), 50 °C, solvent system E10 of Table 7, read-out: Approximate Measured Solubility)?
Answer: 2310 µg/mL (≈ 8450 µM)

Question: What about the solubility at 2 h (binary solvent mixture (main solvent and co-solvent), 50 °C, solvent system E11 of Table 7, read-out: Approximate Measured Solubility) of the same molecule?
Answer: 2480 µg/mL (≈ 9080 µM)

Question: And the solubility at 2 h (binary solvent mixture (main solvent and co-solvent), 50 °C, solvent system E12 of Table 7, read-out: Approximate Measured Solubility)?
Answer: 950 µg/mL (≈ 3480 µM)

Question: What about the solubility at 2 h (binary solvent mixture (main solvent and co-solvent), 50 °C, solvent system F1 of Table 7, read-out: Approximate Measured Solubility) of the same molecule?
Answer: 100 µg/mL (≈ 366 µM)

Question: What about the solubility at 2 h (binary solvent mixture (main solvent and co-solvent), 50 °C, solvent system F2 of Table 7, read-out: Approximate Measured Solubility) of the same molecule?
Answer: 60 µg/mL (≈ 220 µM)

Question: What about the solubility at 2 h (binary solvent mixture (main solvent and co-solvent), 50 °C, solvent system F3 of Table 7, read-out: Approximate Measured Solubility) of the same molecule?
Answer: 30 µg/mL (≈ 110 µM)

Question: What about the solubility at 2 h (binary solvent mixture (main solvent and co-solvent), 50 °C, solvent system F4 of Table 7, read-out: Approximate Measured Solubility) of the same molecule?
Answer: 10 µg/mL (≈ 36.6 µM)

Question: And the solubility at 2 h (binary solvent mixture (main solvent and co-solvent), 50 °C, solvent system F7 of Table 7, read-out: Approximate Measured Solubility)?
Answer: 40 µg/mL (≈ 146 µM)

Question: And the solubility at 2 h (binary solvent mixture (main solvent and co-solvent), 50 °C, solvent system F8 of Table 7, read-out: Approximate Measured Solubility)?
Answer: 40 µg/mL (≈ 146 µM)

Question: What about the solubility at 2 h (binary solvent mixture (main solvent and co-solvent), 50 °C, solvent system F9 of Table 7, read-out: Approximate Measured Solubility) of the same molecule?
Answer: 130 µg/mL (≈ 476 µM)

Question: What about the solubility at 2 h (binary solvent mixture (main solvent and co-solvent), 50 °C, solvent system F12 of Table 7, read-out: Approximate Measured Solubility) of the same molecule?
Answer: 550 µg/mL (≈ 2010 µM)

Question: And the solubility at 2 h (binary solvent mixture (main solvent and co-solvent), 50 °C, solvent system G1 of Table 7, read-out: Approximate Measured Solubility)?
Answer: 2690 µg/mL (≈ 9840 µM)

Question: And the solubility at 2 h (binary solvent mixture (main solvent and co-solvent), 50 °C, solvent system G2 of Table 7, read-out: Approximate Measured Solubility)?
Answer: 1650 µg/mL (≈ 6040 µM)

Question: And the solubility at 2 h (binary solvent mixture (main solvent and co-solvent), 50 °C, solvent system G3 of Table 7, read-out: Approximate Measured Solubility)?
Answer: 700 µg/mL (≈ 2560 µM)

Question: And the solubility at 2 h (binary solvent mixture (main solvent and co-solvent), 50 °C, solvent system G4 of Table 7, read-out: Approximate Measured Solubility)?
Answer: 230 µg/mL (≈ 842 µM)

Question: And the solubility at 2 h (binary solvent mixture (main solvent and co-solvent), 50 °C, solvent system G5 of Table 7, read-out: Approximate Measured Solubility)?
Answer: 60 µg/mL (≈ 220 µM)

Question: What about the solubility at 2 h (binary solvent mixture (main solvent and co-solvent), 50 °C, solvent system G7 of Table 7, read-out: Approximate Measured Solubility) of the same molecule?
Answer: 30 µg/mL (≈ 110 µM)

Question: And the solubility at 2 h (binary solvent mixture (main solvent and co-solvent), 50 °C, solvent system G8 of Table 7, read-out: Approximate Measured Solubility)?
Answer: 410 µg/mL (≈ 1500 µM)

Question: What about the solubility at 2 h (binary solvent mixture (main solvent and co-solvent), 50 °C, solvent system G9 of Table 7, read-out: Approximate Measured Solubility) of the same molecule?
Answer: 650 µg/mL (≈ 2380 µM)

Question: And the solubility at 2 h (binary solvent mixture (main solvent and co-solvent), 50 °C, solvent system G10 of Table 7, read-out: Approximate Measured Solubility)?
Answer: 2310 µg/mL (≈ 8450 µM)

Question: What about the solubility at 2 h (binary solvent mixture (main solvent and co-solvent), 50 °C, solvent system G11 of Table 7, read-out: Approximate Measured Solubility) of the same molecule?
Answer: 5180 µg/mL (≈ 19000 µM)

Question: And the solubility at 2 h (binary solvent mixture (main solvent and co-solvent), 50 °C, solvent system G12 of Table 7, read-out: Approximate Measured Solubility)?
Answer: 5990 µg/mL (≈ 21900 µM)

Question: What about the solubility at 2 h (binary solvent mixture (main solvent and co-solvent), 50 °C, solvent system H1 of Table 7, read-out: Approximate Measured Solubility) of the same molecule?
Answer: 380 µg/mL (≈ 1390 µM)

Question: And the solubility at 2 h (binary solvent mixture (main solvent and co-solvent), 50 °C, solvent system H2 of Table 7, read-out: Approximate Measured Solubility)?
Answer: 240 µg/mL (≈ 878 µM)

Question: And the solubility at 2 h (binary solvent mixture (main solvent and co-solvent), 50 °C, solvent system H3 of Table 7, read-out: Approximate Measured Solubility)?
Answer: 110 µg/mL (≈ 403 µM)

Question: What about the solubility at 2 h (binary solvent mixture (main solvent and co-solvent), 50 °C, solvent system H4 of Table 7, read-out: Approximate Measured Solubility) of the same molecule?
Answer: 40 µg/mL (≈ 146 µM)

Question: What about the solubility at 2 h (binary solvent mixture (main solvent and co-solvent), 50 °C, solvent system H7 of Table 7, read-out: Approximate Measured Solubility) of the same molecule?
Answer: 50 µg/mL (≈ 183 µM)

Question: What about the solubility at 2 h (binary solvent mixture (main solvent and co-solvent), 50 °C, solvent system H8 of Table 7, read-out: Approximate Measured Solubility) of the same molecule?
Answer: 400 µg/mL (≈ 1460 µM)

Question: And the solubility at 2 h (binary solvent mixture (main solvent and co-solvent), 50 °C, solvent system H10 of Table 7, read-out: Approximate Measured Solubility)?
Answer: 1500 µg/mL (≈ 5490 µM)

Question: And the solubility at 2 h (binary solvent mixture (main solvent and co-solvent), 50 °C, solvent system H11 of Table 7, read-out: Approximate Measured Solubility)?
Answer: 1960 µg/mL (≈ 7170 µM)

Question: What about the solubility at 2 h (binary solvent mixture (main solvent and co-solvent), 50 °C, solvent system H12 of Table 7, read-out: Approximate Measured Solubility) of the same molecule?
Answer: 2060 µg/mL (≈ 7540 µM)

Question: What about the solubility at 2 h (solvent system H9 of Table 7, read-out: Approximate Measured Solubility) of the same molecule?
Answer: 860 µg/mL (≈ 3150 µM)

Question: What about the solubility at 2 h (solvent system A1 of Table 7, 50 °C, solvent system A1 of Table 7, read-out: Approximate Measured Solubility) of the same molecule?
Answer: 2240 µg/mL (≈ 8200 µM)

Question: What about the solubility at 2 h (solvent system A2 of Table 7, 50 °C, solvent system A2 of Table 7, read-out: Approximate Measured Solubility) of the same molecule?
Answer: 8190 µg/mL (≈ 30000 µM)

Question: What about the solubility at 2 h (solvent system A3 of Table 7, 50 °C, solvent system A3 of Table 7, read-out: Approximate Measured Solubility) of the same molecule?
Answer: 2430 µg/mL (≈ 8890 µM)

Question: And the solubility at 2 h (solvent system A10 of Table 7, 50 °C, solvent system A10 of Table 7, read-out: Approximate Measured Solubility)?
Answer: 1830 µg/mL (≈ 6700 µM)

Question: And the solubility at 2 h (solvent system A11 of Table 7, 50 °C, solvent system A11 of Table 7, read-out: Approximate Measured Solubility)?
Answer: 290 µg/mL (≈ 1060 µM)

Question: And the solubility at 2 h (solvent system A12 of Table 7, 50 °C, solvent system A12 of Table 7, read-out: Approximate Measured Solubility)?
Answer: 80 µg/mL (≈ 293 µM)
